Assay results taken from patent publication US8580732B2, “Peptide therapy for hyperglycemia” (Duke University, priority 2009, dated 2013).

How the values were obtained:
Format in all cases: cell-based
isolated rat islets = test: Etoposide-induced apoptosis, Annexin V staining by flow cytometry, isolated rat islets; conditions: 72 hr
Protocol: Pools of 50 islets were treated with DMSO, etoposide (0.2 mM) or camptothecin (10 μM) for 72 hrs as indicated. Islets were co-incubated with peptide (50 nM TLQP-21, 50 nM exendin-4), H89 (concentration), and/or LY294002 (concentration) where indicated. Islets were dispersed using 0.05% trypsin/EDTA (Sigma) diluted 1:1 with cell dissociation buffer (Sigma) for 5-10 min at 37 C following gentle pipetting. Islets were recovered by centrifugation and stained with FITC-conjugated Annexin V and propidium iodide (Roche) according to the manufacturer's specifications. Data were collected using a FACScan analyzer and analyzed using WinMDI 2.9 software.

832/3 cells = test: Glucose-stimulated insulin secretion (GSIS), static incubation, 832/3 cells; conditions: 12 mM Glc, concentrations that augment insulin release in rat islets
Protocol: (§1) 832/3 and 832/13 cells derived from the parental INS-1 cell line were cultured as previously described (REF-Hohmeier/Wolheim). Pancreatic islets were isolated from male Sprague-Dawley rats according to standard procedures (See, e.g., Ronnebaum et al., (2006) J. Biol. Chem. 281: 30593-30602). For cell culture experiments, TLQP-21 was purchased from Phoenix Pharmaceuticals. For animal studies, TLQP-21 was synthesized by GenScript Corporation. AQEE-30 was a kind gift of Dr. Yun-Ping (Merck Research Laboratories).
832/3 cells were plated in triplicate per condition in 12-well dishes and assayed at confluence. Cells were washed in SAB buffer and pre-incubated for 1.5 hr in SAB containing 2.5 mM Glc. Insulin was collected by static incubation in SAB containing 2.5 mM Glc for 2 hrs at 37° C. (basal) followed by incubation in SAB containing 12 mM Glc for 2 hrs (stimulatory). Secretagogues (20 nM exendin-4, TLQP-21, AQEE-30) were added where indicated. Cells were washed in PBS, collected by centrifugation, and lysed in 50 uL RIPA containing 5 mM EDTA. Total protein was determined by BCA (Pierce). Insulin was measured from SAB using the Coat-a-Count kit (Siemens). Insulin content was determined from a 1:500 dilution of total protein.

primary rat islets [1] = test: Glucose-stimulated insulin secretion (GSIS), static incubation, primary rat islets; conditions: 16.7 mM Glc
Protocol: as §1
Human VGF cDNA was purchased from Open Biosystems and subcloned into pAC.CMV using PCR engineered restriction sites. Recombinant adenovirus was generated as previously described (REF). Adenoviruses expressing Nkx6.1, Pdx-1, GFP, beta-galactosidase have been described elsewhere (REF). […]
Islets: 3 groups of 20 islets were washed with phosphate-buffered saline (PBS) and incubated in secretion assay buffer (SAB; 114 mM NaCl, 4.7 mM KCl, 1.2 mM […], 1.16 mM MgSO4, 25 mM HEPES pH 7.2, 2.5 mM CaCl2, 0.2% bovine serum albumin (Gibco), 25.5 mM NaHCO3) containing 2.5 mM Glc for 1 hr at 37° C. […] Islets were lysed in RIPA buffer containing 5 mM EDTA and total protein determined by BCA (Pierce). Insulin was measured from SAB using the Coat-a-Count kit (Siemens). Insulin content was determined from a 1:100 dilution of total protein.

primary rat islets [2] = test: cAMP level determination in primary rat islets; conditions: 16.7 mM Glc, 30 min, TLQP-21 50 nM, exendin-4 20 nM, relative to untreated control
Protocol: Primary rat islets and 832/3 cells were prepared as stated for insulin secretion measurements except the incubation at stimulatory glucose was for 30 min in the presence of 0.1 mM isobuytlmethylxanthine (IBMX). Rat islets were rapidly transferred to 0.2 mL of ice-cold 80% ethanol and stored at −80° C. until assayed. Samples were evaporated to dryness and assayed using the cAMP EIA kit from Biomedical Technologies, Inc. using acetylation protocol. For 832/3 cells, the secretion buffer was removed and rapidly replaced with 0.5 mL of 80% ethanol. Cells were stored at −80° C. until assayed. 0.2 mL of sample was evaporated to dryness and assayed for cAMP using the non-acetylation protocol.

COc1cc([C@@H]2c3cc4c(cc3[C@@H](O[C@@H]3O[C@@H]5CO[C@@H](C)O[C@H]5[C@H](O)[C@H]3O)[C@H]3COC(=O)[C@H]23)OCO4)cc(OC)c1O [etoposide]
increase in Annexin V positive cells over untreated (DMSO) control (isolated rat islets; etoposide 0.2 mM alone): 18% | islet cells staining positive for Annexin V (isolated rat islets; etoposide 0.2 mM alone): 35%

AQEE-30: second C-terminal VGF peptide; SEQ ID NO:14 is rat AQEE-30 polypeptide (AQARRAQEEADAEERRLQEQEELENYIEHVLLHRP; listed as Rattus norvegicus)
ability to potentiate GSIS (832/3 cells): unable to augment GSIS | ability to potentiate GSIS (primary rat islets [1]): unable to augment GSIS

exendin-4
protection against etoposide-mediated apoptosis (isolated rat islets; co-culture with etoposide 0.2 mM): comparable level of protection | enhancement of GSIS (primary rat islets [1]; 20 nM): 1.8 fold | increase in cAMP levels (primary rat islets [2]): ~3 fold
